The results in this text go back to the NIST ThermoML archive (doi:10.1016/j.jct.2013.04.021).

± gives the expanded uncertainty stated by the source.

The conditions of this data set: 298.15 K, 101.33 kPa, Liquid; for viscosity: Capillary tube (Ostwald / Ubbelohde) method; for speed of sound: Sing-around technique in a fixed-path interferometer; for mass density: Vibrating tube method.

As to `CCCCCCCCCCO` [decan-1-ol], the viscosity is 11.81 ± 0.28 mPa·s, the speed of sound stood at 1379.4 ± 1.6 m/s and the mass density was 826.489 ± 0.24 kg/m3.

Turning to `CCCCOCCO` [2-butoxyethan-1-ol], the viscosity amounted to 2.885 ± 0.063 mPa·s, the speed of sound is on record as 1306 ± 1.6 m/s and the mass density stood at 896.312 ± 0.24 kg/m3.

Consider `CCCCCCO` [hexan-1-ol], for which the viscosity is reported as 4.623 ± 0.1 mPa·s, the speed of sound was 1303.5 ± 1.6 m/s and the mass density came out at 815.652 ± 0.24 kg/m3.

Turning to `CCCCCCCCO` [octan-1-ol], the viscosity is listed as 7.68 ± 0.17 mPa·s, the speed of sound turned out to be 1347.3 ± 1.6 m/s and the mass density is 821.877 ± 0.24 kg/m3.
